Test results from patent US20120295907A1, “INSECTICIDAL COMPOUNDS” (SYNGENTA CROP PROTECTION, LLC, priority 2009, published 2012).

What was measured:
Assay type in all cases: in vivo
Plutella xylostella = Plutella xylostella (Diamond Back Moth) artificial diet MTP test; conditions: 144 h, 200 ppm (concentration in well 18 ppm), L2 larvae, 6 days, larval mortality, growth regulation
Diabrotica balteata = Diabrotica balteata (Corn Root Worm) artificial diet MTP test; conditions: 120 h, 200 ppm (concentration in well 18 ppm), L2 larvae, 5 days, larval mortality, growth regulation
Tetranychus urticae = Tetranychus urticae (Two-Spotted Spider Mite) bean leaf disc spray test; conditions: foliar, 192 h, 200 ppm spray on bean leaf discs, mite populations of mixed ages, 8 days, egg, larval and adult mortality, read-out: control of Tetranychus urticae
Thrips tabaci = Thrips tabaci (Onion Thrips) sunflower leaf disc spray test; conditions: foliar, 168 h, 200 ppm spray on sunflower leaf discs, population of mixed ages, 7 days, mortality
Heliothis virescens = Heliothis virescens (Tobacco Budworm) egg test on artificial diet; conditions: 96 h, 200 ppm (concentration in well 18 ppm), eggs 0-24 h old on artificial diet, 4 days, egg mortality, larval mortality, growth regulation
Myzus persicae = Myzus persicae (Green Peach Aphid) sunflower leaf disc spray test; conditions: foliar, 144 h, 200 ppm spray on sunflower leaf discs, aphid population of mixed ages, 6 DAT, mortality
Spodoptera littoralis = Spodoptera littoralis (Egyptian Cotton Leafworm) cotton leaf disc spray test; conditions: foliar, 72 h, 200 ppm spray on cotton leaf discs, L1 larvae, mortality, feeding behavior, growth regulation 3 DAT

Measured: pest or weed control at 200 ppm

COc1c(NC(=O)c2ccnc(C)c2Cl)cccc1C(=O)Nc1c(Cl)cc(C(F)(C(F)(F)F)C(F)(F)C(F)(F)F)cc1Br (stereo not drawn) [B93]
≥ 80%: all assays above

CCc1cc(C(F)(C(F)(F)F)C(F)(F)C(F)(F)F)cc(C)c1NC(=O)c1cccc(NC(=O)c2ccnc(Cl)c2)c1OC (stereo not drawn) [A10]
≥ 80%: all assays above

COc1c(NC(=O)c2cccc(Cl)c2C)cccc1C(=O)Nc1c(Cl)cc(C(F)(C(F)(F)F)C(F)(F)C(F)(F)F)cc1Br (stereo not drawn) [B156]
≥ 80%: all assays above

COc1c(NC(=O)c2ccccc2Cl)cccc1C(=O)Nc1c(Cl)cc(C(F)(C(F)(F)F)C(F)(F)C(F)(F)F)cc1Cl (stereo not drawn) [C5]
≥ 80%: all assays above

COc1c(NC(=O)c2ccccc2[N+](=O)[O-])cccc1C(=O)Nc1c(Cl)cc(C(F)(C(F)(F)F)C(F)(F)C(F)(F)F)cc1Br (stereo not drawn) [B80]
≥ 80%: all assays above

COc1c(NC(=O)c2cc(C)nn2C)cccc1C(=O)Nc1c(Cl)cc(C(F)(C(F)(F)F)C(F)(F)C(F)(F)F)cc1Br (stereo not drawn) [B42]
≥ 80%: all assays above

COc1c(NC(=O)c2ccc(C#N)cc2)cccc1C(=O)Nc1c(Cl)cc(C(F)(C(F)(F)F)C(F)(F)F)cc1Cl [E4]
≥ 80%: all assays above

COc1c(NC(=O)c2ccccc2C)cccc1C(=O)Nc1c(Cl)cc(C(F)(C(F)(F)F)C(F)(F)C(F)(F)F)cc1Br (stereo not drawn) [B4]
≥ 80%: all assays above

COc1c(NC(=O)c2ccc(Cl)cc2Cl)cccc1C(=O)Nc1c(Cl)cc(C(F)(C(F)(F)F)C(F)(F)C(F)(F)F)cc1Br (stereo not drawn) [B155]
≥ 80%: all assays above

COc1c(NC(=O)c2cncnc2)cccc1C(=O)Nc1c(Cl)cc(C(F)(C(F)(F)F)C(F)(F)C(F)(F)F)cc1Br (stereo not drawn) [B111]
≥ 80%: all assays above

COc1c(NC(=O)c2ccc([N+](=O)[O-])cc2)cccc1C(=O)Nc1c(Cl)cc(C(F)(C(F)(F)F)C(F)(F)F)cc1Cl [E5]
≥ 80%: all assays above

COc1c(NC(=O)c2ccc(F)cc2)cccc1C(=O)Nc1c(Cl)cc(C(F)(C(F)(F)F)C(F)(F)F)cc1Cl [E17]
≥ 80%: all assays above

COc1c(NC(=O)c2ccc([N+](=O)[O-])cc2Cl)cccc1C(=O)Nc1c(Cl)cc(C(F)(C(F)(F)F)C(F)(F)F)cc1Cl [E9]
≥ 80%: all assays above

COc1c(NC(=O)c2ccnc(F)c2)cccc1C(=O)Nc1c(Cl)cc(C(F)(C(F)(F)F)C(F)(F)C(F)(F)F)cc1Br (stereo not drawn) [B151]
≥ 80%: all assays above

CCc1cc(C(F)(C(F)(F)F)C(F)(F)C(F)(F)F)cc(C)c1NC(=O)c1cccc(NC(=O)c2ccc([N+](=O)[O-])cc2)c1OC (stereo not drawn) [A18]
≥ 80%: all assays above

COc1c(NC(=O)c2ccc(SC)cc2)cccc1C(=O)Nc1c(Cl)cc(C(F)(C(F)(F)F)C(F)(F)C(F)(F)F)cc1Br (stereo not drawn) [B26]
≥ 80%: all assays above

CCc1cc(C(F)(C(F)(F)F)C(F)(F)C(F)(F)F)cc(C)c1NC(=O)c1cccc(NC(=O)c2ccc(C#N)cc2)c1OC (stereo not drawn) [A4, N-[2-ethyl-4-(1,2,2,3,3,3-hexafluoro-1-trifluoromethylpropyl)-6-methyl-phenyl]-3-(4-cyanobenzoylamino)-2-methoxybenzamide]
≥ 80%: all assays above

COc1c(NC(=O)c2ccccc2Br)cccc1C(=O)Nc1c(Cl)cc(C(F)(C(F)(F)F)C(F)(F)C(F)(F)F)cc1Br (stereo not drawn) [B36]
≥ 80%: all assays above
